Reference: patent publication US10131663B2, “Chemical compounds” (AstraZeneca AB, priority 2016, dated 2018)
Values after ≈ are worked out from the molar mass of the structure shown. Read-outs that look alike come from different tables or passages of the source.

How the values were obtained:
[1] = molecular target: recombinant human Estrogen Receptor alpha ligand binding domain (ER alpha-LBD (GST)) (Homo sapiens (Human), UniProt P03372); assay: ERα binding assay (LanthaScreen TR-FRET competition)
Chain of recombinant human Estrogen Receptor alpha ligand binding domain (ER alpha-LBD (GST)) (P03372 307-554): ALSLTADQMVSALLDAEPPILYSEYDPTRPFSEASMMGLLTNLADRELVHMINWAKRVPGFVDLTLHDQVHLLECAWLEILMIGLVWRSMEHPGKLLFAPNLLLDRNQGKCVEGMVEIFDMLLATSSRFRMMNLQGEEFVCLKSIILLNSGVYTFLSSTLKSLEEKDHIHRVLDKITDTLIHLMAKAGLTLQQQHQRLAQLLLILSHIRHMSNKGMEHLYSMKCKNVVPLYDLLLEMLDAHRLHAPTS
Procedure, shortened: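 Competition binding to GST-tagged human ERα ligand-binding domain, read by LanthaScreen TR-FRET: Tb-anti-GST antibody labels the receptor and compounds displace a fluorescent tracer, lowering the signal. IC50 was taken from dose-response curve fitting.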

[2] = molecular target: T1, Estrogen Receptor (ERα) in MCF-7 cells (Homo sapiens (Human), UniProt P03372); assay: MCF-7 ER down-regulation assay (immuno-fluorescence); assay type: cell-based
T1 sequence (P03372 whole entry): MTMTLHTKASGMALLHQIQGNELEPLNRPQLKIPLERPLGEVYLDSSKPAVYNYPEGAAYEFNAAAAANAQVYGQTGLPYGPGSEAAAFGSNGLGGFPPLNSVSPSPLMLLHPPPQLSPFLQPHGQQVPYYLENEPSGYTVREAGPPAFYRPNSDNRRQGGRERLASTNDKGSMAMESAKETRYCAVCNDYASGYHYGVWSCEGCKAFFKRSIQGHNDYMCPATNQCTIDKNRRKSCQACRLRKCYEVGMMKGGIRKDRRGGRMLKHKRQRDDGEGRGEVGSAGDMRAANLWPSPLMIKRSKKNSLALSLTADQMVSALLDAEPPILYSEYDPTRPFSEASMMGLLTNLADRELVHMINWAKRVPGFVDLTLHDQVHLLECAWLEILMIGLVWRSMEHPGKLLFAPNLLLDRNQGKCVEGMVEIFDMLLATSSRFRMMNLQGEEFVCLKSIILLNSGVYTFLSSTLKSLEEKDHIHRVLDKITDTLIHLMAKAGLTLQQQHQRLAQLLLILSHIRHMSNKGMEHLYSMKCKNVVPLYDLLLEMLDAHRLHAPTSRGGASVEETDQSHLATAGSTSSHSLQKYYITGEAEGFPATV
Procedure, shortened: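 Compounds dispensed acoustically from DMSO stocks onto MCF-7 cells; cells fixed 20 min at room temperature, then automated immunostaining for ERα with overnight incubation at 4° C. Read-out is mean total ER fluorescence intensity normalized to cell number (intensity per cell), with curve fitting for concentration-response values.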

[3] = log D (shake flask, 1-octanol/aqueous buffer); assay type: physicochemical
Procedure, shortened: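 Distribution between 1-octanol and aqueous buffer at pH 7.4 was measured by shake flask, with compounds run in mixtures of ten. Relative concentrations in each phase were quantified by UPLC with quantitative MS. Caffeine served as a low-log D QC sample in all runs.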

[4] = Thermodynamic solubility (shake-flask); assay type: physicochemical; details: aqueous phosphate buffer, 25 °C, pH 7.4, aqueous buffer, thermodynamic from solid, aqueous phosphate buffer pH 7.4, 24 hours
Procedure, shortened: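 Shake-flask method starting from 10 mM DMSO stocks, which are dried before use. Residue equilibrated 24 h at 25° C. in aqueous phosphate buffer, pH 7.4. Dissolved fraction separated and quantified by UPLC/MS/MS, with QC samples in each run.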

[5] = Human Caco-2 bidirectional permeability A to B and B to A; assay type: in vitro ADME; details: for Papp at 2 h: Caco-2, 2 hours, pH 7.4; for efflux ratio at 2 h: Caco-2, pH 7.4
Description: An automated assay was used to determine the bidirectional permeability (efflux and uptake) of compounds in Caco-2 cells carried out over 2 hours at pH 7.4.
The efflux ratio (ER) can be determined using the following equation: ER=Papp(B-A)/Papp(A-B) Where Papp (B-A) indicates the apparent permeability coefficient in basolateral to apical direction, and Papp (A-B) indicates the apparent permeability coefficient in apical to basolateral direction. Human Caco-2 Passive Permeability A to B Papp

[6] = molecular target: estrogen receptor (ERα) in CAMA-1 cells (Homo sapiens (Human), UniProt P03372); assay: Western blotting assay, ER down-regulation in CAMA-1; assay type: cell-based; details: 100 nM compound, 48 h, normalised to 100 nM fulvestrant
Chain of estrogen receptor (ERα) in CAMA-1 cells (P03372 whole entry): as above
Description: (§1) Cells were incubated with compounds (100 nM) or vehicle control (0.1% DMSO) for 48 h at 37° C., 5% CO2 before washing once with PBS and lysing with 80 μl lysis buffer (25 mM Tris/HCl, 3 mM EDTA, 3 mM EGTA, 50 mM NaF, 2 mM sodium orthovanadate, 0.27 M sucrose, 10 mM β-glycerophosphate, 5 mM sodium pyrophosphate, 0.5% TritonX-100, pH 6.8) on ice.
(§2) Samples were boiled for 10 min at 95° C. and then frozen at −20° C. until ready for use.
(§3) The blot was stained with Ponceau S (P7170, Sigma) and cut according to appropriate molecular weight markers.
(§4) Membranes were blocked for 1 hour at room temp in 5% Marvel (w/v) in phosphate-buffered saline containing 0.05% Tween™ 20 (PBS/Tween). Blots were then incubated with anti-ERα (SP1) rabbit monoclonal antibody (Thermofisher) diluted 1:1000 at 4° C. overnight (with gentle shaking) followed by several washes with PBS/Tween. […] All antibodies were made up in 5% Marvel (w/v) in PBS/Tween.
(§5) Down-regulation of the ERα receptor was normalised to the vehicle control (0% down-regulation) and the 100 nM fulvestrant control (100% down-regulation) run within the same gel.

[7] = molecular target: T1, Estrogen Receptor (ERα) in MCF-7 cells; assay: Western blotting assay, ER down-regulation in MCF-7; assay type: cell-based; details: 100 nM compound, 48 h, normalised to 100 nM fulvestrant
Description: as §1, §2, §3, §4, §5

[8] = Human plasma protein binding (equilibrium dialysis); assay type: in vitro ADME; details: dialysis 18 hours
Procedure, shortened: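 Fraction unbound (fu %) in human plasma, from LC/MSMS of plasma and buffer sides (7-point plasma calibration) after 18 h rapid equilibrium dialysis. Single determinations, with compounds pooled up to 10 per plasma pool.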

hERG potassium channel = hERG potassium channel (Homo sapiens (Human), UniProt Q12809); assay: hERG binding assay (automated patch clamp, CHO cells); assay type: cell-based; details: CHO cell line, Nanion Syncropatch 384PE
Chain of hERG potassium channel (Q12809 whole entry): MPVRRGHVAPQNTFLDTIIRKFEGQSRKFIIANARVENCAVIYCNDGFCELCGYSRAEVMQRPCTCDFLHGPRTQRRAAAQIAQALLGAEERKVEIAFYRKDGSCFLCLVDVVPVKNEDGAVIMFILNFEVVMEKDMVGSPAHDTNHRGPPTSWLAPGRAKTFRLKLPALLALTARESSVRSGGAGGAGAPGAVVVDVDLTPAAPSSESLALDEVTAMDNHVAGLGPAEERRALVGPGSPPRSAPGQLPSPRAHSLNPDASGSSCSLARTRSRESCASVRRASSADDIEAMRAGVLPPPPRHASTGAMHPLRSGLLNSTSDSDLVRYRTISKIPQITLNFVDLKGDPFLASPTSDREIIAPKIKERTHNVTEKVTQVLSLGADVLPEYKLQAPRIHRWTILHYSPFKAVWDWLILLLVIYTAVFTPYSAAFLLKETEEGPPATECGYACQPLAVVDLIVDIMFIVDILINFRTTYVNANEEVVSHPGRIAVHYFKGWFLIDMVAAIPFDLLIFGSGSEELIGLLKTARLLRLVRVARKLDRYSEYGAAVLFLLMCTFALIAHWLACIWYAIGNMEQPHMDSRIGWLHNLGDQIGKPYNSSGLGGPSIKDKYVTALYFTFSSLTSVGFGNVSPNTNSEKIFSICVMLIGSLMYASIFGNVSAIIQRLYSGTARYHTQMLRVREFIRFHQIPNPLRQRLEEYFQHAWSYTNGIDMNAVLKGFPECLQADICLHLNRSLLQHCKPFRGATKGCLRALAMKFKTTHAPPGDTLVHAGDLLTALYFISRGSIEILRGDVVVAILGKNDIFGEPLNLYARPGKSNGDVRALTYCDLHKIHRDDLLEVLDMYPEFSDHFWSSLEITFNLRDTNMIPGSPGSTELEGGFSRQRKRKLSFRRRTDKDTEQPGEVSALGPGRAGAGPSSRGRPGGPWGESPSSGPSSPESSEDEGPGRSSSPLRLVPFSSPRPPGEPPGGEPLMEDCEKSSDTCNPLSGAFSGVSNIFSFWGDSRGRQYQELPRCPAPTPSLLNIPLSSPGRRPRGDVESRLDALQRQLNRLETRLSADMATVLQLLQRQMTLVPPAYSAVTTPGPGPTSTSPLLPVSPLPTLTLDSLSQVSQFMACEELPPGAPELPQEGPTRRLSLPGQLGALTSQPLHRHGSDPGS
Description: Reagent preparations include: • 1.
Cell preparations: • 1. If using cell culture; cells to be incubated at 30° C. for approximately 4-6 days prior to being used. Day of assay lift cells using accutase and re-suspend in 20 ml cell buffer to a density of 0.8 to 1e6 cells/ml. • 2. If using assay ready cryovials; rapidly thaw two cryovials at 37° C. and slowly pipette into 23 ml external solution • 3.
All compounds were acoustically dispensed in quadruplicate using a Labcyte Echo. […] Fill 384 well medium resistance 4 hole chips with 40 μl external buffer and perfuse internal buffer to the underside of plate. • 2. Dispense 20 μl of cells into each well of the chip followed by 20 μl of seal enhancer. • 3. Remove 40 μl of reagent from each well to the wash station, leaving a residual volume of 40 μl • 4. Dispense 40 μl of reference buffer with a removal step of 40 μl after 3 min, repeat this step. • 5.
hERG-mediated currents were elicited using a voltage step protocol consisting of acontinuous holding voltage of −80 mV, with a 500 ms step to 60 mV followed by a 500 ms step to −40 mV every 15 seconds. hERG current magnitude was measured automatically from the leak-subtracted traces by the Nanion software by taking the peak of the hERG “tail” current at −40 mV every 15 seconds and taking the last three of these responses for each concentration to generate the concentration-effect curve.
Calculation of results is performed using APC package within Genedata. For the routine normalization of well data with Neutral and Inhibitor control well groups as reference, GeneData Assay Analyzer uses the following equation to normalize the signal values to the desired signal range:
[formula] • x is the measured raw signal value of a well • is the median of the measured signal values for the Central Reference (Neutral) wells on a plate • is the median of the measured signal values for the Scale Reference (Inhibitor) wells on a plate • CR is the desired median normalized value for the Central Reference (Neutral) • SR is the desired median normalized value for the Scale Reference (Inhibitor)

[9] = TR-FRET, displacement of Fluormone ES2
[10] = 1-octanol/aqueous buffer, pH 7.4, pH 7.4, 1-octanol/aqueous buffer
[11] = pH 7.4, 1-octanol/aqueous buffer

| SMILES | IC50 [1, 9] [nM] | IC50 [2] [nM] | logD [3, 10] | solubility at 24 h [4] [µM] | Papp at 2 h [5] [×10⁻⁶ cm/s] | efflux ratio at 2 h [5] | CAMA1 Western % ER deg vs Fv [6] [%] | MCF7 Western % ER deg vs Fv [7] [%] | logD [3, 11] | Human plasma protein binding (% free) [8] [% free] | IC50 [1] [nM] | IC50 (hERG potassium channel) [nM] |
| --- | --- | --- | --- | --- | --- | --- | --- | --- | --- | --- | --- | --- |
| C[C@@H]1Cc2c(ccc3[nH]ncc23)[C@@H](c2ccc(NC3CN(CCCF)C3)c(F)n2)N1CC(F)F [Example 47, 6-((6S,8R)-7-(2,2-difluoroethyl)-8-methyl-6,7,8,9-tetrahydro-3H-pyrazolo[4,3-f]isoquinolin-6-yl)-2-fluoro-N-(1-(3-fluoropropyl)azetidin-3-yl)pyridin-3-amine] | 1.2 | 0.41 | 2.6 | > 1000 | 18 | 1.1 | – | – | – | – | – | – |
| COc1cc(OC2CN(CCCF)C2)ccc1[C@@H]1c2ccc3[nH]ncc3c2C[C@@H](C)N1CC1(F)CC1 [Example 7, (6S,8R)-7-((1-fluorocyclopropyl)methyl)-6-(4-((1-(3-fluoropropyl)azetidin-3-yl)oxy)-2-methoxyphenyl)-8-methyl-6,7,8,9-tetrahydro-3H-pyrazolo[4,3-f]isoquinoline] | 8.4 | 0.4 | – | 470 (≈ 233 µg/mL) | – | – | 90 | 90 | 3.5 | 11 | – | – |
| COc1cc(NC2CN(CCCF)C2)ncc1[C@@H]1c2ccc3[nH]ncc3c2C[C@@H](C)N1CC1(F)CC1 [Example 9, 5-((6S,8R)-7-((1-fluorocyclopropyl)methyl)-8-methyl-6,7,8,9-tetrahydro-3H-pyrazolo[4,3-f]isoquinolin-6-yl)-N-(1-(3-fluoropropyl)azetidin-3-yl)-4-methoxypyridin-2-amine] | 360 | > 300 | 1 | > 1000 | – | – | 25 | −13 | – | 21 | – | – |
| C[C@@H]1Cc2c(ccc3[nH]ncc23)[C@@H](c2ccc(OC3CN(CCCF)C3)cn2)N1CC(F)F [Example 26, (6S,8R)-7-(2,2-difluoroethyl)-6-(5-((1-(3-fluoropropyl)azetidin-3-yl)oxy)pyridin-2-yl)-8-methyl-6,7,8,9-tetrahydro-3H-pyrazolo[4,3-f]isoquinoline] | 6.7 | 0.52 | 3 | 258 (≈ 119 µg/mL) | – | – | 97 | 97 | – | 22 | – | – |
| COc1cc(NC2CN(CCCF)C2)c(F)cc1[C@@H]1c2ccc3[nH]ncc3c2C[C@@H](C)N1CC1(F)CC1 [Example 53, N-(2-fluoro-4-((6S,8R)-7-((1-fluorocyclopropyl)methyl)-8-methyl-6,7,8,9-tetrahydro-3H-pyrazolo[4,3-f]isoquinolin-6-yl)-5-methoxyphenyl)-1-(3-fluoropropyl)azetidin-3-amine] | 5.7 | 0.26 | 3.2 | 691 (≈ 355 µg/mL) | – | – | 46 | 81 | – | 11 | – | – |
| C[C@@H]1Cc2c(ccc3[nH]ncc23)[C@@H](c2ncc(NC3CN(CCCF)C3)cc2F)N1CC(F)(F)CO [Example 31, 2,2-Difluoro-3-((6S,8R)-6-(3-fluoro-5-((1-(3-fluoropropyl)azetidin-3-yl)amino)pyridin-2-yl)-8-methyl-3,6,8,9-tetrahydro-7H-pyrazolo[4,3-f]isoquinolin-7-yl)propan-1-ol] | – | – | 2 | > 942 | 0.9 | – | – | – | – | 44 | – | – |
| COc1cc(NC2CN(CCCF)C2)ccc1[C@@H]1c2ccc3[nH]ncc3c2C[C@@H](C)N1CC(F)(F)CO [Example 60, 2,2-difluoro-3-((6S,8R)-6-(4-((1-(3-fluoropropyl)azetidin-3-yl)amino)-2-methoxyphenyl)-8-methyl-3,6,8,9-tetrahydro-7H-pyrazolo[4,3-f]isoquinolin-7-yl)propan-1-ol] | – | 0.19 | – | 593 (≈ 307 µg/mL) | 0.7 | 34 | – | – | 2.5 | 23 | 4.7 | 11000 |
| C[C@@H]1Cc2c(ccc3[nH]ncc23)[C@@H](c2c(F)cc(NC3CN(CCCF)C3)cc2F)N1CC(F)(F)F [Example 8, N-(3,5-difluoro-4-((6S,8R)-8-methyl-7-(2,2,2-trifluoroethyl)-6,7,8,9-tetrahydro-3H-pyrazolo[4,3-f]isoquinolin-6-yl)phenyl)-1-(3-fluoropropyl)azetidin-3-amine] | 2 | 0.055 | 4.4 | 90 (≈ 46 µg/mL) | – | – | 100 | 101 | – | 0.99 | – | – |
| COc1cc(NC2CN(CCC(F)(F)F)C2)ccc1[C@@H]1c2ccc3[nH]ncc3c2C[C@@H](C)N1CC1(F)CC1 [Example 56, N-(4-((6S,8R)-7-((1-fluorocyclopropyl)methyl)-8-methyl-6,7,8,9-tetrahydro-3H-pyrazolo[4,3-f]isoquinolin-6-yl)-3-methoxyphenyl)-1-(3,3,3-trifluoropropyl)azetidin-3-amine] | 8.2 | 0.58 | 3.6 | 377 (≈ 200 µg/mL) | – | – | 52 | 61 | – | – | – | – |
